Experimental data from patent US10562850B2, “Human plasma kallikrein inhibitors” (priority 2015, dated 2020).

Each compound was assayed against human plasma kallikrein (Homo sapiens (Human), UniProt P03952) (assay: Plasma Kallikrein Activity Assay (chromogenic substrate S2302)). Details: 2 nM kallikrein, 80 μM S2302, 30° C., pH 7.8; Cheng-Prusoff.
human plasma kallikrein, sequence (P03952 391-638): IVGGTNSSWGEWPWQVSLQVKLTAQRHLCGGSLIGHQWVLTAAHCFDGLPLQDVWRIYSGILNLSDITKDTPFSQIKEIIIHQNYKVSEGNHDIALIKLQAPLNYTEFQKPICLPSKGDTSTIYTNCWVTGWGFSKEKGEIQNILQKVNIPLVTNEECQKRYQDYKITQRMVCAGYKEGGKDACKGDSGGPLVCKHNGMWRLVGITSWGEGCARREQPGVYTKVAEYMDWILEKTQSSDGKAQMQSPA
human plasma kallikrein, sequence (P03952 20-390 partner): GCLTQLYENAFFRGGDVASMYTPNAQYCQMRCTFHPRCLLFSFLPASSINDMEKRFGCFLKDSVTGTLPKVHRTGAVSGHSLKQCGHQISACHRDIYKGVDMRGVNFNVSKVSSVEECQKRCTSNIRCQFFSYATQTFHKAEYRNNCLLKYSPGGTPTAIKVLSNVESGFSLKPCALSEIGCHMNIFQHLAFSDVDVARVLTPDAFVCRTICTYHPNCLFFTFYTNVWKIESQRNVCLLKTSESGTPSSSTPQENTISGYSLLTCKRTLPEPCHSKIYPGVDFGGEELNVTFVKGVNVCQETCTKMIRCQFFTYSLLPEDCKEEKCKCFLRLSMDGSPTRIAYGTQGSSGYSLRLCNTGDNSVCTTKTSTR
Assay type: biochemical
Method: Plasma Kallikrein Activity Assay.
The effect of compounds of the invention on human plasma kallikrein activity was determined using the chromogenic substrates (DiaPharma Group, Inc., West Chester, Ohio, USA). In these experiments, 2 nM kallikrein (Enzyme Research Laboratories, South Bend, Ind., USA) was incubated with 80 μM S2302 (H-D-Pro-Phe-Arg-p-nitroaniline) in the absence or presence of increasing concentrations of compounds of the invention in a final volume of 200 μL Tris-HCl buffer (200 mM NaCl; 2.5 mM CaCl2; 50 mM Tris-HCl, pH 7.8).
After incubation at 30° C., the activity of kallikrein was measured as a change in absorbance at OD 405 nm using BioTek PowerWave X340 Microplate Reader (Winooski, Vt., USA). Data were analyzed using SigmaPlot software (Systat Software, Inc., San Jose, Calif., USA) (Four Parameter Logistic Curve). Ki values for the inhibitors were determined using the Cheng-Prusoff equation (Biochem. Pharmacol. 1973, 22, 3099).
Compound `N#Cc1cccc(C(N)(CCC2CC2)c2ccc(F)c(NC(=O)[C@H]3C[C@](O)(c4ccccc4)CN3C(=O)Nc3ccc(Cl)cn3)c2)c1` (stereo partly drawn) [Compound 29e, (2R,4S)-N2-(5-((+)-1-amino-1-(3-cyanophenyl)-3-cyclopropylpropyl)-2-fluorophenyl)-N1-(5-chloropyridin-2-yl)-4-hydroxy-4-phenylpyrrolidine-1,2-dicarboxamide] has a Ki of under 0.05 µM. `N#Cc1cccc(C(N)(CCC2CC2)c2ccc(F)c(NC(=O)[C@H]3C[C@](O)(c4ccccc4)CN3C(=O)Nc3ccc(Cl)cc3)c2)c1` (stereo partly drawn) [Compound 30a, (2R,4S)-N2-(5-((+)-1-amino-1-(3-cyanophenyl)-3-cyclopropylpropyl)-2-fluorophenyl)-N1-(4-chlorophenyl)-4-hydroxy-4-phenylpyrrolidine-1,2-dicarboxamide] gave a Ki of under 0.05 µM. For `N#Cc1cccc(C(CCC2CC2)(NC(=O)Nc2ccc(Cl)cc2)c2ccc(F)c(NC(=O)[C@H]3C[C@](O)(c4ccccc4)CN3C(=O)Nc3ccc(Cl)cc3)c2)c1` (stereo partly drawn) [Compound 30b, (2R,4S)-N1-(4-chlorophenyl)-N2-(5-((+)-1-(3-(4-chlorophenyl)ureido)-1-(3-cyanophenyl)-3-cyclopropylpropyl)-2-fluorophenyl)-4-hydroxy-4-phenylpyrrolidine-1,2-dicarboxamide], the Ki was 0.05 to 0.1 µM. With `NC(CCC1CC1)(c1ccc(F)c(NC(=O)[C@H]2C[C@](O)(c3ccccc3)CN2C(=O)Nc2ccc(Cl)cc2)c1)c1ccccn1` (stereo partly drawn) [Compound 31i, (2R,4S)-N2-(5-((−)-1-amino-3-cyclopropyl-1-(pyridin-2-yl)propyl)-2-fluorophenyl)-N1-(4-chlorophenyl)-4-hydroxy-4-phenylpyrrolidine-1,2-dicarboxamide] the Ki was under 0.05 µM. `NC(CCC1CC1)(c1ccc(F)c(NC(=O)[C@H]2C[C@](O)(c3ccccc3)CN2C(=O)Nc2ccc(Cl)cn2)c1)c1ccccn1` (stereo partly drawn) [Compound 32a, (2R,4S)-N2-(5-((+)-1-amino-3-cyclopropyl-1-(pyridin-2-yl)propyl)-2-fluorophenyl)-N1-(5-chloropyridin-2-yl)-4-hydroxy-4-phenylpyrrolidine-1,2-dicarboxamide] showed a Ki of under 0.05 µM. Compound `O=C(Nc1ccc(Cl)cn1)NC(CCC1CC1)(c1ccc(F)c(NC(=O)[C@H]2C[C@](O)(c3ccccc3)CN2C(=O)Nc2ccc(Cl)cn2)c1)c1ccccn1` (stereo partly drawn) [Compound 32b, (2R,4S)-N1-(5-chloropyridin-2-yl)-N2-(5-(1-(3-(5-chloropyridin-2-yl)ureido)-3-cyclopropyl-1-(pyridin-2-yl)propyl)-2-fluorophenyl)-4-hydroxy-4-phenylpyrrolidine-1,2-dicarboxamide] has a Ki of over 0.1 µM. In the case of `CC(C)(C)[S@@+]([O-])NC(CCC1CC1)(c1cccc(C#N)c1)c1ccc(F)c(NC(=O)[C@H]2C[C@H](N=[N+]=[N-])CN2C(=O)Nc2ccc(Cl)cc2)c1` (stereo partly drawn) [Compound 33b, (2R,4S)-4-azido-N1-(4-chlorophenyl)-N2-(5-((+)-1-(3-cyanophenyl)-3-cyclopropyl-1-((R)-1,1-dimethylethylsulfinamido)propyl)-2-fluorophenyl)pyrrolidine-1,2-dicarboxamide], the Ki is reported as over 0.1 µM. Work on `N#Cc1cccc(C(N)(CCC2CC2)c2ccc(F)c(NC(=O)[C@H]3C[C@H](N)CN3C(=O)Nc3ccc(Cl)cc3)c2)c1` (stereo partly drawn) [Compound 33d, (2R,4S)-4-amino-N2-(5-((+)-1-amino-1-(3-cyanophenyl)-3-cyclopropylpropyl)-2-fluorophenyl)-N1-(4-chlorophenyl)pyrrolidine-1,2-dicarboxamide] yielded a Ki of over 0.1 µM. For `CO[C@]1(c2ccccc2)C[C@H](C(=O)Nc2cc(C(CCC3CC3)(N[S@@+]([O-])C(C)(C)C)c3ccccn3)ccc2F)N(C(=O)OC(C)(C)C)C1` (stereo partly drawn) [Compound 34b, (2R,4S)-tert-butyl-2-(5-((+)-3-cyclopropyl-1-((S)-1,1-dimethylethylsulfinamido)-1-(pyridin-2-yl)propyl)-2-fluorophenylcarbamoyl)-4-methoxy-4-phenylpyrrolidine-1-carboxylate], the Ki was over 0.1 µM. `CO[C@]1(c2ccccc2)C[C@H](C(=O)Nc2cc(C(N)(CCC3CC3)c3ccccn3)ccc2F)N(C(=O)Nc2ccc(Cl)cc2)C1` (stereo partly drawn) [Compound 34d, (2R,4S)-N2-(5-((+)-1-amino-3-cyclopropyl-1-(pyridin-2-yl)propyl)-2-fluorophenyl)-N1-(4-chlorophenyl)-4-methoxy-4-phenylpyrrolidine-1,2-dicarboxamide] showed a Ki of under 0.05 µM. Compound `CO[C@]1(c2ccccc2)C[C@H](C(=O)Nc2cc(C(N)(CCC3CC3)c3ccccn3)ccc2F)N(C(=O)Nc2ccc(Cl)cn2)C1` (stereo partly drawn) [Compound 35a, (2R,4S)-N2-(5-((+)-1-amino-3-cyclopropyl-1-(pyridin-2-yl)propyl)-2-fluorophenyl)-N1-(5-chloropyridin-2-yl)-4-methoxy-4-phenylpyrrolidine-1,2-dicarboxamide] has a Ki of 0.05 to 0.1 µM. `CO[C@@H]1C[C@H](C(=O)Nc2cc(C(N)(CCC3CC3)c3ccccn3)ccc2F)N(C(=O)Nc2ccc(Cl)cn2)C1` (stereo partly drawn) [Compound 36d, (2R,4R)-N2-(5-((+)-1-amino-3-cyclopropyl-1-(pyridin-2-yl)propyl)-2-fluorophenyl)-N1-(5-chloropyridin-2-yl)-4-methoxypyrrolidine-1,2-dicarboxamide] gave a Ki of over 0.1 µM. With `CO[C@@H]1C[C@H](C(=O)Nc2cc(C(N)(CCC3CC3)c3ccccn3)ccc2F)N(C(=O)Nc2ccc(Cl)cn2)C1` (stereo partly drawn) [Compound 37d, (2R,4R)-N2-(5-((+)-1-amino-3-cyclopropyl-1-(pyridin-2-yl)propyl)-2-fluorophenyl)-N1-(5-chloropyridin-2-yl)-4-methoxypyrrolidine-1,2-dicarboxamide] the Ki was under 0.05 µM. Work on `CCC1(O)C[C@H](C(=O)Nc2cc(C(N)(CCC3CC3)c3ccccn3)ccc2F)N(C(=O)Nc2ccc(Cl)cn2)C1` (stereo partly drawn) [Compound 38d, (2R)-N2-(5-((+)-1-amino-3-cyclopropyl-1-(pyridin-2-yl)propyl)-2-fluorophenyl)-N1-(5-chloropyridin-2-yl)-4-ethyl-4-hydroxypyrrolidine-1,2-dicarboxamide] yielded a Ki of under 0.05 µM. `NC(CCC1CC1)(c1ccncc1)c1ccc(F)c(NC(=O)[C@H]2C[C@](O)(c3ccccc3)CN2C(=O)Nc2ccc(Cl)cn2)c1` (stereo partly drawn) [Compound 39h, (2R,4S)-N2-(5-((+)-1-amino-3-cyclopropyl-1-(pyridin-4-yl)propyl)-2-fluorophenyl)-N1-(5-chloropyridin-2-yl)-4-hydroxy-4-phenylpyrrolidine-1,2-dicarboxamide] was tested, and the Ki was under 0.05 µM. `NC(CCC1CC1)(c1ccncc1)c1ccc(F)c(NC(=O)[C@H]2C[C@](O)(c3ccccc3)CN2C(=O)Nc2ccc(Cl)cc2)c1` (stereo partly drawn) [Compound 40a, (2R,4S)-N2-(5-((+)-1-amino-3-cyclopropyl-1-(pyridin-4-yl)propyl)-2-fluorophenyl)-N1-(4-chlorophenyl)-4-hydroxy-4-phenylpyrrolidine-1,2-dicarboxamide] was tested, and the Ki was under 0.05 µM. `CNC(CCC1CC1)(c1ccncc1)c1ccc(F)c(NC(=O)[C@H]2C[C@](O)(c3ccccc3)CN2C(=O)Nc2ccc(Cl)cn2)c1` (stereo partly drawn) [Compound 41a, (2R,4S)-N1-(5-chloropyridin-2-yl)-N2-(5-((+)-3-cyclopropyl-1-(methylamino)-1-(pyridin-4-yl)propyl)-2-fluorophenyl)-4-hydroxy-4-phenylpyrrolidine-1,2-dicarboxamide] showed a Ki of under 0.05 µM. Compound `CO[C@@H]1C[C@H](C(=O)Nc2cc(C(CCC3CC3)n3ccccc3=O)ccc2F)N(C(=O)Nc2ccc(Cl)cn2)C1` (stereo partly drawn) [Compound 42l, (2R,4R)-N1-(5-chloropyridin-2-yl)-N2-(5-(3-cyclopropyl-1-(2-oxopyridin-1(2H)-yl)propyl)-2-fluorophenyl)-4-methoxypyrrolidine-1,2-dicarboxamide] has a Ki of under 0.05 µM. Compound `CO[C@@H]1C[C@H](C(=O)Nc2cc(C(CCC3CC3)n3ccccc3=O)ccc2F)N(C(=O)Nc2ccc(Cl)cn2)C1` (stereo partly drawn) [Compound 43m, (2R,4R)-N1-(5-chloropyridin-2-yl)-N2-(5-((+)-3-cyclopropyl-1-(2-oxopyridin-1(2H)-yl)propyl)-2-fluorophenyl)-4-methoxypyrrolidine-1,2-dicarboxamide] has a Ki of 0.05 to 0.1 µM. For `CO[C@@H]1C[C@H](C(=O)Nc2cc(C(CCC3CC3)N3CCCCC3=O)ccc2F)N(C(=O)Nc2ccc(Cl)cn2)C1` (stereo partly drawn) [Compound 44e, (2R,4R)-N1-(5-chloropyridin-2-yl)-N2-(5-((+)-3-cyclopropyl-1-(2-oxopiperidin-1-yl)propyl)-2-fluorophenyl)-4-methoxypyrrolidine-1,2-dicarboxamide], the Ki was over 0.1 µM. `CO[C@]1(c2ccccc2)C[C@H](C(=O)Nc2cc(C(N)(CCC3CC3)c3ccncc3)ccc2F)N(C(=O)Nc2ccc(Cl)cn2)C1` (stereo partly drawn) [Compound 45c, (2R,4S)-N2-(5-((+)-1-amino-3-cyclopropyl-1-(pyridin-4-yl)propyl)-2-fluorophenyl)-N1-(5-chloropyridin-2-yl)-4-methoxy-4-phenylpyrrolidine-1,2-dicarboxamide] was tested, and the Ki was over 0.1 µM. `CO[C@@H]1C[C@H](C(=O)Nc2cc(C(N)(CCC3CC3)c3ccnc(C)c3)ccc2F)N(C(=O)Nc2ccc(Cl)cn2)C1` (stereo partly drawn) [Compound 46k, (2R,4R)-N2-(5-((+)-1-amino-3-cyclopropyl-1-(2-methylpyridin-4-yl)propyl)-2-fluorophenyl)-N1-(5-chloropyridin-2-yl)-4-methoxypyrrolidine-1,2-dicarboxamide] showed a Ki of under 0.05 µM. For `NC(CCC1CC1)(c1ccncc1)c1ccc(F)c(NC(=O)[C@H]2C[C@H](c3ccccc3)CN2C(=O)Nc2ccc(Cl)cn2)c1` (stereo partly drawn) [Compound 47d, (2R,4R)-N2-(5-((+)-1-amino-3-cyclopropyl-1-(pyridin-4-yl)propyl)-2-fluorophenyl)-N1-(5-chloropyridin-2-yl)-4-phenylpyrrolidine-1,2-dicarboxamide], the Ki was 0.05 to 0.1 µM.
